Where two headings read alike, the source gives them in different places.
What was measured:
Assay type in all cases: biochemical
[1] = target: T1, JAK2 (Homo sapiens, UniProt O60674); assay: JAK2 microfluidic kinase assay (Caliper EZ Reader II, FAM labeled peptide substrate); conditions: (0.25 nM), 1 mM ATP
T1 construct: purchased Carna Biosciences
Experimental: (§1) Compounds were tested against JAK1, JAK2, JAK2V617F and TYK2.
(§2) Assay Formats: JAK activity was determined in the reaction buffer 50 mM HEPES, 0.01% Brij35, 10 mMMgCl2, 2 mMDTT by a microfluidic assay. The phosphorylation of a FAM labeled peptide substrate was monitored in the Caliper EZ Reader II (Perkin Elmer). The assay condition for each batch of enzyme (Carna Biosciences) was optimized to obtain 10% conversion rate of peptide substrate.
(§3) The test compounds were dissolved in DMSO to a stock concentration of 10 mM. 3-fold serially diluted compounds with top concentration of 5 μM were pre-incubated with JAK1, JAK2, JAK2V617F or TYK2 for 10 min at ambient temperature. The final DMSO concentration of assay mixture was 1%. FAM labeled peptide substrate (final concentration […]) and ATP (1 mM concentration) were sequentially added to initiate the kinase reaction at 28° C. The reaction was stopped by adding 50 mMEDTA. The reaction time for JAK1, JAK2, JAK2V617F and TYK2 was 120 min, 20 min, 30 min and 10 min, respectively.
(§4) The well in the test plate without enzyme was defined as 100% inhibition. And the well without compound but with equivalent DMSO was defined as no inhibition. The percent inhibition was calculated by the following formula. % Inhibition=(Conversionmax−Conversionsample)/(Conversionmax−Conversionmin)*100Conversionmax means the conversion rate in the positive well without addition of compound Conversionmin means the conversion rate in the well without addition of enzyme Conversionsample means the conversion rate of test compounds
(§5) The dose-response (percent inhibition) curve was plotted and IC50 values were determined by GraphPad software.

[2] = target: T2, TYK2 (Homo sapiens, UniProt P29597); assay: TYK2 microfluidic kinase assay (Caliper EZ Reader II, FAM labeled peptide substrate); conditions: (2.5 nM), 1 mM ATP
T2 construct: purchased Carna Biosciences
Experimental: as §1, §2, §3, §4, §5

[3] = target: T3, JAK1 (Homo sapiens, UniProt P23458); assay: JAK1 microfluidic kinase assay (Caliper EZ Reader II, FAM labeled peptide substrate); conditions: (5 nM), 1 mM ATP
T3 construct: purchased Carna Biosciences
Experimental: as §1, §2, §3, §4, §5

[4] = target: T4, JAK2V617F (Homo sapiens, UniProt O60674, V617F); assay: JAK2V617F microfluidic kinase assay (Caliper EZ Reader II, FAM labeled peptide substrate); conditions: (2.5 nM), 1 mM ATP
T4 construct: purchased Carna Biosciences
Experimental: as §1, §2, §3, §4, §5

[5] = Table 2, read-out: IC50 JAK2 (0.25 nM) (1 mM ATP)
[6] = Table 2, read-out: IC50 TYK2 (2.5 nM) (1 mM ATP)
[7] = Table 2, read-out: IC50 JAK1 (5 nM) (1 mM ATP)
[8] = Table 3B, literature compounds, read-out: JAK2 (0.25 nM) (1 mM ATP)
[9] = Table 3B, literature compounds, read-out: TYK2 (2.5 nM) (1 mM ATP)
[10] = Table 3B, literature compounds, read-out: JAK1 (5 nM) (1 mM ATP)
[11] = Table 3B, literature compounds, read-out: J2V617F (2.5 nM) (1 mM ATP)
[12] = Table 2, read-out: IC50 J2V617F (2.5 nM) (1 mM ATP)

T2 sequence (P29597 whole entry): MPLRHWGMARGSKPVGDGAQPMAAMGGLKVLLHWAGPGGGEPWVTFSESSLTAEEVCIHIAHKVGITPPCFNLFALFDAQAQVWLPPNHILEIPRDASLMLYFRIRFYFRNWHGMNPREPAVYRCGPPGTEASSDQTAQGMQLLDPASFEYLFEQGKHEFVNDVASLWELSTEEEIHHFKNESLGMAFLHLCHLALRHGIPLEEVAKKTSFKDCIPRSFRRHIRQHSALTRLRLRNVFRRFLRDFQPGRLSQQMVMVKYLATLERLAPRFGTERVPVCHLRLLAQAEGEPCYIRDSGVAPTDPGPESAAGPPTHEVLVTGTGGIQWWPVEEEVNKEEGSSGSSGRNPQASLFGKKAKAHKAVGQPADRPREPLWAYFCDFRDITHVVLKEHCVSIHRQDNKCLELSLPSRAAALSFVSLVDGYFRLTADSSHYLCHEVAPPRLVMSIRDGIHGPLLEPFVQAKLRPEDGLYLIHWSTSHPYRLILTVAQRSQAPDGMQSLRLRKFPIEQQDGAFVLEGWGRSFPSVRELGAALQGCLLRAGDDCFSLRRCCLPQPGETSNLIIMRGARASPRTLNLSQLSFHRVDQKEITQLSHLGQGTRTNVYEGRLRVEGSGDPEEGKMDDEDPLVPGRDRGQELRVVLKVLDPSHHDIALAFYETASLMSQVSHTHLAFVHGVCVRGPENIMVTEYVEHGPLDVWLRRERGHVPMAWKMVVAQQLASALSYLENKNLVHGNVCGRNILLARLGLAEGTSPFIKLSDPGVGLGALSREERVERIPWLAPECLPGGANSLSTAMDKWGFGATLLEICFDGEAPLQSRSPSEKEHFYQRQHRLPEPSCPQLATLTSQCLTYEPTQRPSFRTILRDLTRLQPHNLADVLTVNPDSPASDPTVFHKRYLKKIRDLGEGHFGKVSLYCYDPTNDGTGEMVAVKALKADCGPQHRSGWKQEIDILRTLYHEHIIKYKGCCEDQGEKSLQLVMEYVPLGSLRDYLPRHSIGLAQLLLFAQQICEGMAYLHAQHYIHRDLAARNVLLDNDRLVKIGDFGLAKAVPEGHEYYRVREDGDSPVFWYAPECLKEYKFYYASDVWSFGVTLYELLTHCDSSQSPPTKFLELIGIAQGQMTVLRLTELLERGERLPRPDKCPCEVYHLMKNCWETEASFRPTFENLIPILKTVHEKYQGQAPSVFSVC
T4 sequence (O60674 whole entry V617F): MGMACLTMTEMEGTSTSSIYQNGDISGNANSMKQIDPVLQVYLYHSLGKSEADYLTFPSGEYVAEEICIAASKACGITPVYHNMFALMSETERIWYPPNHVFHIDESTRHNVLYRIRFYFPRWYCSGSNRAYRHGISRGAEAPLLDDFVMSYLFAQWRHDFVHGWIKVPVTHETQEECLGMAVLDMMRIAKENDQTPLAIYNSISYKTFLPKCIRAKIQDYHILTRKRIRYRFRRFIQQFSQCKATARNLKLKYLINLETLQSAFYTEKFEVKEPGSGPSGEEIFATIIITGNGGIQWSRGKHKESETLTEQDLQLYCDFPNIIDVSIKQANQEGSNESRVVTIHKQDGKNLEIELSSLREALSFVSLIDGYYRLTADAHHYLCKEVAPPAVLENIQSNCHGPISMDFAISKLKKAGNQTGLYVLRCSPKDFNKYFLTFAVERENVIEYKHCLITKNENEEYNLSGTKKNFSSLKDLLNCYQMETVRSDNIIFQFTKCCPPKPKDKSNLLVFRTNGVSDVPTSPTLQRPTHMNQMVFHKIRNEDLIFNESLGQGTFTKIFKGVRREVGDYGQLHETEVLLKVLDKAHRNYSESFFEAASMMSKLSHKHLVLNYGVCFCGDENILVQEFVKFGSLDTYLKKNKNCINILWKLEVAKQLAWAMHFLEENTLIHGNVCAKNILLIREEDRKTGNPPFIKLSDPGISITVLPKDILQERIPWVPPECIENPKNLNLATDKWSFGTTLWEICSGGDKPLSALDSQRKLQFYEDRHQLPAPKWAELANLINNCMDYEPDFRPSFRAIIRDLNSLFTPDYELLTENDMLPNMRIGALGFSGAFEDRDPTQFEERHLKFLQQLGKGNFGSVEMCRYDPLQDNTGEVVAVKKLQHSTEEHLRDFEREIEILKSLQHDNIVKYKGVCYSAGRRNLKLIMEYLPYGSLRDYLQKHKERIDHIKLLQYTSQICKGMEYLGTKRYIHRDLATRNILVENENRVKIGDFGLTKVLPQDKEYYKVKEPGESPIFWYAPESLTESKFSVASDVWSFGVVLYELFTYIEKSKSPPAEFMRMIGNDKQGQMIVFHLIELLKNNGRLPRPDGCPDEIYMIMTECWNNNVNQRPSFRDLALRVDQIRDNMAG
T1 sequence (O60674 whole entry): as the sequence (O60674 whole entry V617F) above, with F617V counted along it
T3 sequence (P23458 whole entry): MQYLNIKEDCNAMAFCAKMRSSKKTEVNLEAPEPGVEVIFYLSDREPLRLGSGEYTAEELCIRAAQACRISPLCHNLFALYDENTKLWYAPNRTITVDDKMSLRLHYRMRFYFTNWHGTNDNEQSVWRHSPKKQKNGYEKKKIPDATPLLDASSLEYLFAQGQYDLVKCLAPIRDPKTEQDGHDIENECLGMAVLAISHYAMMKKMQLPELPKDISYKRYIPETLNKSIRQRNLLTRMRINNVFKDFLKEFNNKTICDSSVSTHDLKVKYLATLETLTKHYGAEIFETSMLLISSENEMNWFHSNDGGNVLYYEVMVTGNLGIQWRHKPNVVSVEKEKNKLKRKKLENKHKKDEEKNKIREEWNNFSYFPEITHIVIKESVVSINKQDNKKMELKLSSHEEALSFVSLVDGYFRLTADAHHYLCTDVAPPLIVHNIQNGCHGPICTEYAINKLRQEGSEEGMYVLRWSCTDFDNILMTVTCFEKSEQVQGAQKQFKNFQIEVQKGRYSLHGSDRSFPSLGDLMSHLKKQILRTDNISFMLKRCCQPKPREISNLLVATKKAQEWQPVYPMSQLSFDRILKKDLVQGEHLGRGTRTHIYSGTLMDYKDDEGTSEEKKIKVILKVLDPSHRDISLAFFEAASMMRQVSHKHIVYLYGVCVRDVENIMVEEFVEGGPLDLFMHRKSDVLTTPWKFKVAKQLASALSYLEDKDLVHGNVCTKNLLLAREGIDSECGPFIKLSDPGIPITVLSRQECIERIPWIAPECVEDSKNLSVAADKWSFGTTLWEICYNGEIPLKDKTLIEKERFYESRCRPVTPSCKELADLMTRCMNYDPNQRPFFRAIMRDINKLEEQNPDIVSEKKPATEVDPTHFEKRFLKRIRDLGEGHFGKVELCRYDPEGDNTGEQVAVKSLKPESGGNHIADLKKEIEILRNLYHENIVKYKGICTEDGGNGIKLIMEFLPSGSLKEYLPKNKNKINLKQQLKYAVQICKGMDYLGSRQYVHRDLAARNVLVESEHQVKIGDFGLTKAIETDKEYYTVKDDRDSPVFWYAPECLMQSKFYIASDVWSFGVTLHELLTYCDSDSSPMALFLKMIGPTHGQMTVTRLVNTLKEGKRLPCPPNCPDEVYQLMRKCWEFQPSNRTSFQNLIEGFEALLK

SMILES | IC50 [1, 5] [nM] | IC50 [2, 6] [nM] | IC50 [3, 7] [nM] | IC50 [1, 8] [nM] | IC50 [2, 9] [nM] | IC50 [3, 10] [nM] | IC50 [4, 11] [nM] | IC50 [4, 12] [nM]
Cc1cnc(Nc2cnn(C3CCN(C)CC3)c2)nc1-c1ccc(NCC2(C#N)CC2)cc1 [Example 43, 1-(((4-(5-methyl-2-((1-(1-methylpiperidin-4-yl)-1H-pyrazol-4-yl)amino)pyrimidin-4-yl)phenyl)amino)methyl)cyclopropane carbonitrile] | 3.12 | 98.4 | 26.8 | – | – | – | – | –
Cc1cnc(Nc2cnn(C3CC3)c2)nc1-c1ccc(NCC(C)(C)C#N)c(F)c1 [Example 37, 3-((4-(2-((1-cyclopropyl-1H-pyrazol-4-yl)amino)-5-methylpyrimidin-4-yl)-2-fluorophenyl)amino)-2,2-dimethylpropanenitrile] | 0.741 | < 1.25 | 14.5 | – | – | – | – | –
Cc1cnc(Nc2cnn(C)c2)nc1-c1ccc(OCCC#N)cc1 [Example 41, 3-(4-(5-methyl-2-((1-methyl-1H-pyrazol-4-yl)amino)pyrimidin-4-yl)phenoxy)propanenitrile] | 32.3 | 64.7 | 19.6 | – | – | – | – | –
Cc1cnc(Nc2cnn(C)c2)nc1-c1ccc(OCC(C)(C)C#N)cc1 [Example 38, 2,2-dimethyl-3-(4-(5-methyl-2-((1-methyl-1H-pyrazol-4-yl)amino)pyrimidin-4-yl)phenoxy)propanenitrile] | 1.09 | 2.62 | 7.49 | – | – | – | – | –
CCOc1ccc(-c2nc(Nc3cnn(C(C)C)c3)ncc2C)cc1F [Example 49, 4-(4-ethoxy-3-fluorophenyl)-N-(1-isopropyl-1H-pyrazol-4-yl)-5-methylpyrimidin-2-amine, reference compound] | – | – | – | 80.7 | 41.3 | 52.6 | 103 | –
N#CC1(CNc2ccc(-c3nc(Nc4cnn(C5CCNCC5)c4)ncc3Cl)cc2)CC1 [Example 44, 1-(((4-(5-chloro-2-((1-(piperidin-4-yl)-1H-pyrazol-4-yl)amino)pyrimidin-4-yl)phenyl)amino)methyl)cyclopropane carbonitrile] | 1.46 | 173 | 35.3 | – | – | – | – | –
Cc1cnc(Nc2cnn(C3CC3)c2)nc1-c1ccc(OCC(C)(C)C#N)cc1 [Example 1, 3-(4-(2-((1-cyclopropyl-1H-pyrazol-4-yl)amino)-5-methylpyrimidin-4-yl)phenoxy)-2,2-dimethylpropanenitrile] | 0.27 | 12 | 4.8 | – | – | – | – | 3.18
Cc1cnc(Nc2cnn(C3CCOCC3)c2)nc1-c1ccc(OCC2(C#N)CC2)c(F)c1 [Example 6, 1-((2-fluoro-4-(5-methyl-2-((1-(tetrahydro-2H-pyran-4-yl)-1H-pyrazol-4-yl)amino)pyrimidin-4-yl)phenoxy)methyl)cyclopropane-carbonitrile] | – | < 1.25 | 7.42 | – | – | – | – | < 1.25
COCCn1cc(Nc2ncc(C)c(-c3ccc(OCC(C)(C)C#N)c(F)c3)n2)cn1 [Example 19, 3-(2-fluoro-4-(2-((1-(2-methoxyethyl)-1H-pyrazol-4-yl)amino)-5-methylpyrimidin-4-yl)phenoxy)-2,2-dimethylpropanenitrile] | < 0.25 | < 1.25 | < 2.5 | – | – | – | – | < 1.25
Cc1cnc(Nc2cnn(C3CC3)c2)nc1-c1ccc(OCC2(C#N)CC2)nc1 [Example 11, 1-(((5-(2-((l-cyclopropyl-1H-pyrazol-4-yl)amino)-5-methylpyrimidin-4-yl)pyridin-2-yl)oxy)methyl)cyclopropanecarbonitrile] | – | 218 | 65.1 | – | – | – | – | 138
Cc1cnc(Nc2cnn(C3CCN(C)CC3)c2)nc1-c1ccc(OCC(C)(C)C#N)c(F)c1 [Example 18, 3-(2-fluoro-4-(5-methyl-2-((1-(1-methylpiperidin-4-yl)-1H-pyrazol-4-yl)amino)pyrimidin-4-yl)phenoxy)-2,2-dimethylpropanenitrile] | 0.427 | < 1.25 | < 2.5 | – | – | – | – | –
CCOc1ccc(-c2nc(Nc3cnn(C)c3)ncc2C)cc1F [Example 46, 4-(4-ethoxy-3-fluorophenyl)-5-methyl-N-(1-methyl-1H-pyrazol-4-yl)pyrimidin-2-amine, reference compound] | – | – | – | 60.6 | 74.9 | 40.6 | 86.3 | –
Cc1cnc(Nc2cnn(C3CC3)c2)nc1-c1ccc(OCC(C)(C)C#N)c(F)c1 [Example 4, 3-(4-(2-((1-cyclopropyl-1H-pyrazol-4-yl)amino)-5-methylpyrimidin-4-yl)-2-fluorophenoxy)-2,2-dimethylpropanenitrile] | 0.425 | < 1.25 | < 2.5 | – | – | – | – | < 1.25
CCOc1ccc(-c2nc(Nc3cnn(C)c3)ncc2C)cc1 [Example 50, 4-(4-ethoxyphenyl)-5-methyl-N-(1-methyl-1H-pyrazol-4-yl)pyrimidin-2-amine, reference compound] | – | – | – | 201 | 157 | 151 | 343 | –
Cn1cc(Nc2ncc(Cl)c(-c3ccc(OCC(C)(C)C#N)cc3)n2)cn1 [Example 29, 3-(4-(5-chloro-2-((1-methyl-1H-pyrazol-4-yl)amino)pyrimidin-4-yl)phenoxy)-2,2-dimethylpropanenitrile] | 3.4 | 41.4 | 14.1 | – | – | – | – | –
Cc1cnc(Nc2cnn(C3CC3)c2)nc1-c1ccc(NCC2(C#N)CC2)cc1 [Example 42, 1-(((4-(2-((1-cyclopropyl-1H-pyrazol-4-yl)amino)-5-methylpyrimidin-4-yl)phenyl)amino)methyl)cyclopropane carbonitrile] | 27.4 | 102 | 19.2 | – | – | – | – | –
Cc1cnc(Nc2cnn(C)c2)nc1-c1ccc(OCCC#N)c(F)c1 [Example 12, 3-(2-fluoro-4-(5-methyl-2-((1-methyl-1H-pyrazol-4-yl)amino)pyrimidin-4-yl)phenoxy)propanenitrile] | 32.3 | 64.7 | 19.6 | – | – | – | – | –
CC(C)(C#N)COc1ccc(-c2nc(Nc3cnn(C4CC4)c3)ncc2Cl)cc1 [Example 32, 3-(4-(5-chloro-2-((1-cyclopropyl-1H-pyrazol-4-yl)amino)pyrimidin-4-yl)phenoxy)-2,2-dimethylpropanenitrile] | 0.9 | 106 | 28.9 | – | – | – | – | –
Cc1cnc(Nc2cnn(C(C)C(F)(F)F)c2)nc1-c1ccc(OCC(C)(C)C#N)c(F)c1 (stereo not drawn) [Example 40, 3-(2-fluoro-4-(5-methyl-2-((1-(1,1,1-trifluoropropan-2-yl)-1H-pyrazol-4-yl)amino)pyrimidin-4-yl)phenoxy)-2,2-dimethylpropanenitrile] | 0.654 | 1.78 | < 2.5 | – | – | – | – | –
Cc1cnc(Nc2cnn(C3CCN(C)CC3)c2)nc1-c1ccc(OCC2(C#N)CC2)c(F)c1 [Example 20, 1-((2-fluoro-4-(5-methyl-2-((1-(1-methylpiperidin-4-yl)-1H-pyrazol-4-yl)amino)pyrimidin-4-yl)phenoxy)methyl)cyclopropane-carbonitrile] | 0.251 | < 1.25 | < 2.5 | – | – | – | – | –
Cc1cnc(Nc2cnn(C3CCOCC3)c2)nc1-c1ccc(OCC(C)(C)C#N)c(F)c1 [Example 7, 3-(2-fluoro-4-(5-methyl-2-((1-(tetrahydro-2H-pyran-4-yl)-1H-pyrazol-4-yl)amino)pyrimidin-4-yl)phenoxy)-2,2-dimethylpropanenitrile] | – | < 1.25 | < 2.5 | – | – | – | – | < 1.25
Cc1cnc(Nc2cnn(C3CCOCC3)c2)nc1-c1ccc(OCC2(C#N)CC2)nc1 [Example 14, 1-(((5-(5-methyl-2-((1-(tetrahydro-2H-pyran-4-yl)-1H-pyrazol-4-yl)amino)pyrimidin-4-yl)pyridin-2-yl)oxy)methyl)cyclopropanecarbonitrile] | – | 351 | 202 | – | – | – | – | 163
Cc1cnc(Nc2cnn(C3CCNCC3)c2)nc1-c1ccc(OCC(C)(C)C#N)c(F)c1 [Example 39, 3-(2-fluoro-4-(5-methyl-2-((1-(piperidin-4-yl)-1H-pyrazol-4-yl)amino)pyrimidin-4-yl)phenoxy)-2,2-dimethylpropanenitrile] | 0.377 | < 1.25 | < 2.5 | – | – | – | – | –

Reference: patent US12024503B2, “Benzethers and anilines of pyrazolyl-amino-pyrimidinyl derivatives, and compositions and methods thereof” (LYNK PHARMACEUTICALS CO. LTD., priority 2019, dated 2024)
